Measured values published in patent US20200339509A1, “Non-Coordinating Anion Type Indolinium Activators in Aliphatic and Alicyclic Hydrocarbon Solvents” (ExxonMobil Chemical Patents Inc., priority 2019, published 2020).
Where “and” joins values, the source holds several entries; their conditions need not be identical. Identical values can stand only once.

Key:
[1] = Solubility study of the activators (saturated solution in aliphatic/alicyclic solvent); type: physicochemical; settings: 25° C., concentration of saturated solution; for Solubility limit in MeCy: MeCy (methylcyclohexane)
Procedure: The solubility was determined using a saturated solution of the activator prepared by slowly adding the solvent to a pre-weighed amount of the activator. The final volume was determined as the minimum amount of solvent required to convert the heterogenous mixture into a homogeneous solution. The concentration of the saturated solution is presented in millimoles of activator per liter of solution (mM). Alternatively, a mixture of the activator was prepared by adding the solvent to an excess amount of activator. The resulting slurry was separated from the undissolved solids by decanting the mixture into a tared vial. Solvent was then added dropwise until the mixture became a homogeneous solution. The mass of the final solution was measured and then the solvent was evaporated to dryness to obtain the mass of the activator. The concentration of the saturated solution is presented in millimoles of activator per liter of solution (mM).

[2] = Propylene homopolymerization in parallel pressure reactor with the indicated activator; settings: propylene polymerization; 30 nmol catalyst MCN-1, 1.1 equivalents activator, 100° C., 150 psi propylene
Procedure: Solutions of the metal complexes and activators were prepared in a drybox using toluene or methylcyclohexane. Concentrations were typically 0.2 mmol/L. Tri-n-octylaluminum (TNOAL, neat, AkzoNobel) was used as a scavenger as indicated. Concentration of the TNOAL solution in toluene ranged from 0.5 to 2.0 mmol/L.
Polymerizations were carried out in a parallel pressure reactor according to common laboratory techniques, as generally described in U.S. Pat. Nos. 6,306,658; 6,455,316; 6,489,168; WO 00/09255; consistent with the procedures described by Murphy, V. et al. (2003) “A Fully Integrated High-Throughput Screening Methodology for the Discovery of New Polyolefin Catalysts: Discovery of a New Class of High Temperature Single-Site Group (IV) Copolymerization Catalysts,” J. Am. Chem. Soc., v. 125, pp. 4306-4317, each of which is fully incorporated herein by reference. The experiments were conducted in an inert atmosphere (N2) drybox using autoclaves equipped with an external heater for temperature control, glass inserts (internal volume of reactor=23.5 mL for C2 and C2/C8; 22.5 mL for C3 runs), septum inlets, regulated supply of nitrogen, ethylene and propylene, and equipped with disposable PEEK mechanical stirrers (800 RPM). The autoclaves were prepared by purging with dry nitrogen at 110° C. or 115° C. for 5 hours and then at 25° C. for 5 hours. Although the specific quantities, temperatures, solvents, reactants, reactant ratios, pressures, and other variables are frequently changed from one polymerization run to the next, the following describes a typical polymerization performed in a parallel pressure reactor. […]
The catalyst and activator solutions for the comparative data were all prepared in toluene. […] The resultant polymer was analyzed by Rapid GPC (see below) to determine the molecular weight, by FT-IR (see below) to determine percent octene incorporation, and by DSC (see below) to determine melting point (Tm).
Equivalence is determined based on the mole equivalents relative to the moles of the transition metal in the catalyst complex. […]

C[NH+]1CCc2ccccc21.Fc1c(F)c(F)c([B-](c2c(F)c(F)c(F)c(F)c2F)(c2c(F)c(F)c(F)c(F)c2F)c2c(F)c(F)c(F)c(F)c2F)c(F)c1F [MIH-BF20, 1-methylindolinium tetrakis(pentafluorophenyl) borate]
Solubility limit in MeCy [1]: 5300 µM
Solubility limit in i-hexane [1]: <100 µM
activity [2]: 7 kg/mmol/h

CCCCCCCCCCC1C[NH+](C)c2ccccc21.Fc1c(F)c(F)c2c(F)c([B-](c3c(F)c(F)c4c(F)c(F)c(F)c(F)c4c3F)(c3c(F)c(F)c4c(F)c(F)c(F)c(F)c4c3F)c3c(F)c(F)c4c(F)c(F)c(F)c(F)c4c3F)c(F)c(F)c2c1F [MDIH-BF28, 3-decyl-1-methylindolin-1-ium BF-28]
Solubility limit in MeCy [1]: 10100 µM
Solubility limit in i-hexane [1]: 1000 µM

1-methylindolinium tetrakis(heptafluoronaphthalen-2-yl)borate [MIH-BF28]
activity [2]: 64 kg/mmol/h and 39 kg/mmol/h and 46 kg/mmol/h

N,N-dimethyl anilinium tetrakis(heptafluoronaphthalen-2-yl)borate [DMAH-BF28, reference compound]
activity [2]: 126 kg/mmol/h and 182 kg/mmol/h and 196 kg/mmol/h and 164 kg/mmol/h

C[NH+](C)c1ccccc1.Fc1c(F)c(F)c([B-](c2c(F)c(F)c(F)c(F)c2F)(c2c(F)c(F)c(F)c(F)c2F)c2c(F)c(F)c(F)c(F)c2F)c(F)c1F [DMAH-BF20, N,N-Dimethylanilinium tetrakis(pentafluorophenyl) borate, reference compound]
Solubility limit in MeCy [1]: <100 µM
Solubility limit in i-hexane [1]: <100 µM
